Consider 26 molecules from patent US11149036B2, “3-(1H-pyrazol-4-yl)pyridine allosteric modulators of the M4 muscarinic acetylcholine receptor” (Merck Sharp & Dohme Corp., priority 2017, dated 2021).

pEC50: −log10 of the molar value.

For the assay, the target named is T1, human M4 muscarinic acetylcholine receptor (Homo sapiens, UniProt P08173).
T1 construct: expressed in transfected cells; host or cells: CHO-K1
T1 sequence (P08173 1-479): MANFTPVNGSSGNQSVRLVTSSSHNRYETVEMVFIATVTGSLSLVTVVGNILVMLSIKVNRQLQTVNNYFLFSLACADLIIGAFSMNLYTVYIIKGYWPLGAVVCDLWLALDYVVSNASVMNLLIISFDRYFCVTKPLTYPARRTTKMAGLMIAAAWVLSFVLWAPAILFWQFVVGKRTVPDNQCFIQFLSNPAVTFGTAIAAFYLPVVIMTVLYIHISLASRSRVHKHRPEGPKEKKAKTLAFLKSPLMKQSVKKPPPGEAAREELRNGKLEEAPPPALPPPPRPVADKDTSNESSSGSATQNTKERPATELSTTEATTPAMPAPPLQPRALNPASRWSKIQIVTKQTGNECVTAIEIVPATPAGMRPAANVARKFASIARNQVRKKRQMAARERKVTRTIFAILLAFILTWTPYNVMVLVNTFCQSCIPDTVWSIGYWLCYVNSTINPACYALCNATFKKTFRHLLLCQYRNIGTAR
Nature of the assay: human FLIPR-based M4 PAM assay (CHO-K1 cells with human M4 receptor and Gaqi5, calcium dye fluorescence). In kind it is cell-based. The settings on record: inflection point (IP) of dose response curve, acetylcholine added at 20% of maximum response, read-out: M4 FLIPPR Hu IP. Here is the method: (§1) In a typical experiment the M4 muscarinic acetylcholine receptor modulating activity of the compounds of the present invention was determined in accordance with the following experimental method. CHO-K1 cells stably transfected with human M4 receptor and chimeric G-protein Gaqi5 (Coward P, et al., Analytical Biochemistry, 270:242-248 (1999)) are thawed from liquid N2 storage, resuspended in growth medium, plated in black, clear bottom 384 well plates, and incubated 16-20 hours at 37° C., 5% CO2. On the day of assay, growth medium is removed, the cells are washed 2 times with wash buffer, and cells are incubated in dye loading buffer at 37° C., 5% CO2 for ˜1 hour. Following dye loading the cell plates are placed in a FLIPR Tetra instrument and while monitoring dye fluorescence (excitation 470-495 […]), 10 uL of test substance at increasing concentrations is added, and fluorescence values are recorded for 4 min. Next, 10 uL of acetylcholine is added (final concentration calculated so as to achieve 20% of the maximum acetycholine response), and the fluorescence reading is continued for 3.5 min. In some cases, a third addition of acetylcholine (final concentration calculated to achieve 70% of the maximal acetylcholine response) is performed. The resulting dose response curves are fit to a 4 parameter logistic equation and the final result is determined as the inflection point (IP) of the curve
as §1, with “CHO-K1” for “In a typical experiment the M4 muscarinic acetylcholine receptor modulating activity of the compounds of the present invention was determined in accordance with the following experimental method. CHO-K1”, “Gaqi5” for “Gaqi5 (Coward P, et al., Analytical Biochemistry, 270:242-248 (1999))”, “performed.” for “performed. The resulting dose response curves are fit to a 4 parameter logistic equation and the final result is determined as the inflection point (IP) of the curve”
Regarding `O=C1c2cc(-c3ncccc3-c3cnn(CC4(F)CCCC4)c3)ccc2CN1CC1CCC1` [Example 140, 2-(cyclobutylmethyl)-6-(3-(1-((1-fluorocyclopentyl)methyl)-1H-pyrazol-4-yl)pyridin-2-yl)isoindolin-1-one], the pEC50 was 7.17.

Consider `Cc1ccc(-c2cnn(CC3C[C@@H](F)[C@@H](F)C3)c2)c(-c2ccc3cccnc3c2)n1` (mixture of isomers) [Example 27, 7-(3-(1-(((3R,4S and 3S,4R)-3,4-difluorocyclopentyl)methyl)-1H-pyrazol-4-yl)-6-methylpyridin-2-yl)quinoline (+/−)], for which the pEC50 was 7.19.

Consider `N#Cc1ccc(-c2cnn(CC3(F)CCCC3)c2)c(-c2cnc3c(c2)C(=O)N(CC2CC2)C3)n1` [Example 55, 6-(6-(cyclopropylmethyl)-5-oxo-6,7-dihydro-5H-pyrrolo[3,4-b]pyridin-3-yl)-5-(1-((1-fluorocyclopentyl)methyl)-1H-pyrazol-4-yl)picolinonitrile], for which the pEC50 is 7.46.

Take `C#Cc1ccc(-c2cnn(CC3CCCC3)c2)c(-c2ccc3cccnc3c2)n1` [Example 168, 7-(3-(1-(cyclopentylmethyl)-1H-pyrazol-4-yl)-6-ethynylpyridin-2-yl)quinoline]: the pEC50 was 7.62.

In the case of `N#Cc1ccc(-c2cnn(CC3C[C@H](F)[C@@H](F)C3)c2)c(-c2ccn3ccnc3c2)n1` [Example 71, 5-(1-(((3S,4S)-3,4-difluorocyclopentyl)methyl)-1H-pyrazol-4-yl)-6-(imidazo[1,2-a]pyridin-7-yl)picolinonitrile], the pEC50 is 7.59.

`Cc1cn2ccc(-c3nc(C#N)ccc3-c3cnn(C[C@H]4CC[C@H](F)C4)c3)cc2n1` [Example 69, 5-(1-(((1S,3S)-3-fluorocyclopentyl)methyl)-1H-pyrazol-4-yl)-6-(2-methylimidazo[1,2-a]pyridin-7-yl)picolinonitrile]: the pEC50 is 7.60.

As to `COc1cc2ccc(-c3nc(C)ccc3-c3cnn(C(F)C4CCCC4)c3F)cc2nn1` (centres unmarked) [Example 36, 7-(3-(1-(cyclopentylfluoromethyl)-5-fluoro-1H-pyrazol-4-yl)-6-methylpyridin-2-yl)-3-methoxycinnoline], the pEC50 was 7.42.

For the molecule `Cc1ccc(-c2cnn(CC3CCCC3)c2)c(-c2ccc(CCCO)cc2)n1` [Example 8, 3-(4-(3-(1-(cyclopentylmethyl)-1H-pyrazol-4-yl)-6-methylpyridin-2-yl)phenyl)propan-1-ol], the pEC50 is 7.27.

In the case of `Cn1ccc2ccc(-c3nc(C#N)ccc3-c3cnn(CC4CCCC4)c3)cc2c1=O` [Example 39, 5-(1-(cyclopentylmethyl)-1H-pyrazol-4-yl)-6-(2-methyl-1-oxo-1,2-dihydroisoquinolin-7-yl)picolinonitrile], the pEC50 was 6.95.

As to `N#Cc1ccc(-c2cnn(CC3(F)CCCC3)c2)c(-c2ccc3conc3c2)n1` [Example 62, 6-(benzo[c]isoxazol-6-yl)-5-(1-((1-fluorocyclopentyl)methyl)-1H-pyrazol-4-yl)picolinonitrile], the pEC50 was 7.21.

Regarding `Cc1ccc(-c2cnn(CC3(F)CCCC3)c2)c(-c2ccc3c(c2)ncn3C)n1` [Example 16, 5-(3-(1-((1-fluorocyclopentyl)methyl)-1H-pyrazol-4-yl)-6-methylpyridin-2-yl)-1-methyl-1H-benzo[d]imidazole], the pEC50 is 7.47.

For the molecule `Cc1cn2ccc(-c3ncccc3-c3cnn(CC4C[C@H](F)[C@@H](F)C4)c3)cc2n1` [Example 4, 7-(3-(1-(((3S,4S)-3,4-difluorocyclopentyl)methyl)-1H-pyrazol-4-yl)pyridin-2-yl)-2-methylimidazo[1,2-a] pyridine], the pEC50 is 7.20.

`CC1(Cn2cc(-c3ccc(C#N)nc3-c3ccn4nccc4c3)cn2)CCCC1` [Example 79, 5-(1-((1-methylcyclopentyl)methyl)-1H-pyrazol-4-yl)-6-(pyrazolo[1,5-a]pyridin-5-yl) picolinonitrile]: the pEC50 is 7.10.

As for `COc1cc2ccc(-c3nc(C#N)ccc3-c3cnn(CC4(F)CCCC4)c3)cn2n1` [Example 64, 5-(1-((1-fluorocyclopentyl)methyl)-1H-pyrazol-4-yl)-6-(2-methoxypyrazolo[1,5-a]pyridin-6-yl)picolinonitrile], the pEC50 is 7.66.

`CC1(Cn2cc(-c3ccc(C#N)nc3-c3ccn4ncnc4c3)cn2)CCCC1` [Example 75, 6-([1,2,4]triazolo[1,5-a]pyridin-7-yl)-5-(1-((1-methylcyclopentyl)methyl)-1H-pyrazol-4-yl)picolinonitrile]: the pEC50 was 7.51.

Regarding `Cn1cnc2cc(-c3nc(C(F)F)ccc3-c3cnn(C[C@H]4CC[C@H](F)C4)c3)ccc21` [Example 120, 5-(6-(difluoromethyl)-3-(1-(((1S,3S)-3-fluorocyclopentyl)methyl)-1H-pyrazol-4-yl)pyridin-2-yl)-1-methyl-1H-benzo[d] imidazole], the pEC50 is 7.36.

With `Cc1ccc(-c2cnn(CC3(C)CCCC3)c2)c(-c2ccc3cn(C)nc3c2)n1` [Example 34, 2-methyl-6-(6-methyl-3-(1-((1-methylcyclopentyl)methyl)-1H-pyrazol-4-yl)pyridin-2-yl)-2H-indazole], the pEC50 is 7.24.

For `Cc1nc2cc(-c3ncc(F)cc3-c3cnn(CC4(F)CCCC4)c3)ccn2c1C` [Example 97, 7-(5-fluoro-3-(1-((1-fluorocyclopentyl)methyl)-1H-pyrazol-4-yl)pyridin-2-yl)-2,3-dimethylimidazo[1,2-a] pyridine], the pEC50 is 7.17.

As for `CC1(Cn2cc(-c3cc(F)c(F)nc3-c3ccn4ccnc4c3)cn2)CCCC1` [Example 137, 7-(5,6-difluoro-3-(1-((1-methylcyclopentyl)methyl)-1H-pyrazol-4-yl)pyridin-2-yl)imidazo[1,2-a]pyridine], the pEC50 was 7.68.

On to `COc1cc2ccc(-c3nc(C)ccc3-c3cnn(CC45CCC(CC4)C5)c3)cc2nn1` [Example 25, 7-(3-(1-(bicyclo[2.2.1]heptan-1-ylmethyl)-1H-pyrazol-4-yl)-6-methylpyridin-2-yl)-3-methoxycinnoline], for which the pEC50 was 8.00.

Turning to `Cc1ccc(-c2cnn(CC3CCCC3)c2)c(-c2ccc(C(O)C(F)(F)F)cc2)n1` (centres unmarked) [Example 9, 1-(4-(3-(1-(cyclopentylmethyl)-1H-pyrazol-4-yl)-6-methylpyridin-2-yl)phenyl)-2,2,2-trifluoroethan-1-ol], the pEC50 is 7.30.

Regarding `CN1Cc2ncc(-c3nc(C#N)ccc3-c3cnn(CC4(F)CCCC4)c3)cc2C1=O` [Example 41, 5-(1-((1-fluorocyclopentyl)methyl)-1H-pyrazol-4-yl)-6-(6-methyl-5-oxo-6,7-dihydro-5H-pyrrolo[3,4-b]pyridin-3-yl)picolinonitrile], the pEC50 is 7.35.

As to `Cc1ccc(-c2cnn(CC3CCC(F)(F)C3)c2)c(-c2ccc3cccnc3c2)n1` (centres unmarked) [Example 28, 7-(3-(1-((3,3-difluorocyclopentyl)methyl)-1H-pyrazol-4-yl)-6-methylpyridin-2-yl)quinoline], the pEC50 is 7.40.

Take `CC1(Cn2cc(-c3ccc(C#N)nc3-c3ccc4cc(N5CCC5)cnc4c3)cn2)CCCC1` [Example 161, 6-(3-(azetidin-1-yl)Quinolin-7-yl)-5-(1-((1-methylcyclopentyl)methyl)-1H-pyrazol-4-yl)picolinonitrile]: the pEC50 was 7.35.

For the molecule `CC1(Cn2cc(-c3cc(F)c(C#N)nc3-c3ccn4ccnc4c3)cn2)CCCC1` [Example 87, 3-fluoro-6-(imidazo[1,2-a]pyridin-7-yl)-5-(1-((1-methylcyclopentyl)methyl)-1H-pyrazol-4-yl)picolinonitrile], the pEC50 was 7.96.

Take `COCc1cn2ccc(-c3nc(C#N)ccc3-c3cnn(CC4(C)CCCC4)c3)cc2n1` [compound 156, 6-(2-(methoxymeth-yl)imidazo[1,2-a]pyridin-7-yl)-5-(1-((1-methylcyclopentyl)meth-yl)-1H-pyrazol-4-yl)picolinonitrile]: the pEC50 was 7.54.
